Test results published in patent US10882859B2, “Kinase inhibitors” (Topivert Pharma Limited, priority 2015, dated 2021).
Converted amounts (≈) assume the structure as drawn. Like-named read-outs stand apart in the source and are kept apart here.

How the values were obtained:
JAK1 = JAK1 (Homo sapiens (Human), UniProt P23458); experiment: KINOMEscan enzyme binding assay (DiscoveRx), JAK1; conditions: read-out: Dissociation Constant JAK1
Description: (§1) These assays may be conducted by DiscoveRx (formerly Ambit; San Diego, Calif.). The percentage inhibition produced by incubation with a test compound may be calculated relative to the non-inhibited control.

JAK2 = JAK2 (Homo sapiens (Human), UniProt O60674); experiment: KINOMEscan enzyme binding assay (DiscoveRx), JAK2; conditions: read-out: Dissociation Constant JAK2
Chain of JAK2 (O60674 whole entry): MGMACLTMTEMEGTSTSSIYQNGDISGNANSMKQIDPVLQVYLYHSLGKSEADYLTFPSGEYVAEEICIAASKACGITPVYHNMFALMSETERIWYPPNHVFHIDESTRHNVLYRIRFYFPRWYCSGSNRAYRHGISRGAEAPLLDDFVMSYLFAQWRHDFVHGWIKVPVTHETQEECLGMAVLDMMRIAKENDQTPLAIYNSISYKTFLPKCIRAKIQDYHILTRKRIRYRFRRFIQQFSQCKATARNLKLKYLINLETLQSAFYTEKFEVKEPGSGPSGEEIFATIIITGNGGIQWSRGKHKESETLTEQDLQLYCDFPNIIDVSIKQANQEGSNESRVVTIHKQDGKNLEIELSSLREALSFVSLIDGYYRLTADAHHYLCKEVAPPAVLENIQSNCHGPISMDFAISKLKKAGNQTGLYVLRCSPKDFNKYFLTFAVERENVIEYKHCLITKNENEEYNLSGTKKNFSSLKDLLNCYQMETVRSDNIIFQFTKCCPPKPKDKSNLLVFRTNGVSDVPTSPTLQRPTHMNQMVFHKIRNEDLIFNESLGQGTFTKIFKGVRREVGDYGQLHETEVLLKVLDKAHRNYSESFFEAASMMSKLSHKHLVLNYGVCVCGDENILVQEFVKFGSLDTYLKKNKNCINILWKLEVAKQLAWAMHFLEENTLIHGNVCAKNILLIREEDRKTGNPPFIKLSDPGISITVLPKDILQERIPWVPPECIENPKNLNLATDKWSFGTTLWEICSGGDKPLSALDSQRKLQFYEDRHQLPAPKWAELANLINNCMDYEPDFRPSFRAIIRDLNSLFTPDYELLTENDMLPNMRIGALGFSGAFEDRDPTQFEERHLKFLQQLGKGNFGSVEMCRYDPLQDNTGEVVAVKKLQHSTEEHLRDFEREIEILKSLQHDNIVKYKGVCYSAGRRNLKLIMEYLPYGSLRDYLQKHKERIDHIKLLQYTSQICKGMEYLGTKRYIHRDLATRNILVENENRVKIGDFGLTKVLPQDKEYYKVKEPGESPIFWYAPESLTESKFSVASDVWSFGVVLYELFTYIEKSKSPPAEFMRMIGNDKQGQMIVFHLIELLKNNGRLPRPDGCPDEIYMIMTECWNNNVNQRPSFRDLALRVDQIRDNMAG
Description: as §1

JAK3 = JAK3 (Homo sapiens (Human), UniProt P52333); experiment: KINOMEscan enzyme binding assay (DiscoveRx), JAK3; conditions: read-out: Dissociation Constant JAK3
Chain of JAK3 (P52333 whole entry): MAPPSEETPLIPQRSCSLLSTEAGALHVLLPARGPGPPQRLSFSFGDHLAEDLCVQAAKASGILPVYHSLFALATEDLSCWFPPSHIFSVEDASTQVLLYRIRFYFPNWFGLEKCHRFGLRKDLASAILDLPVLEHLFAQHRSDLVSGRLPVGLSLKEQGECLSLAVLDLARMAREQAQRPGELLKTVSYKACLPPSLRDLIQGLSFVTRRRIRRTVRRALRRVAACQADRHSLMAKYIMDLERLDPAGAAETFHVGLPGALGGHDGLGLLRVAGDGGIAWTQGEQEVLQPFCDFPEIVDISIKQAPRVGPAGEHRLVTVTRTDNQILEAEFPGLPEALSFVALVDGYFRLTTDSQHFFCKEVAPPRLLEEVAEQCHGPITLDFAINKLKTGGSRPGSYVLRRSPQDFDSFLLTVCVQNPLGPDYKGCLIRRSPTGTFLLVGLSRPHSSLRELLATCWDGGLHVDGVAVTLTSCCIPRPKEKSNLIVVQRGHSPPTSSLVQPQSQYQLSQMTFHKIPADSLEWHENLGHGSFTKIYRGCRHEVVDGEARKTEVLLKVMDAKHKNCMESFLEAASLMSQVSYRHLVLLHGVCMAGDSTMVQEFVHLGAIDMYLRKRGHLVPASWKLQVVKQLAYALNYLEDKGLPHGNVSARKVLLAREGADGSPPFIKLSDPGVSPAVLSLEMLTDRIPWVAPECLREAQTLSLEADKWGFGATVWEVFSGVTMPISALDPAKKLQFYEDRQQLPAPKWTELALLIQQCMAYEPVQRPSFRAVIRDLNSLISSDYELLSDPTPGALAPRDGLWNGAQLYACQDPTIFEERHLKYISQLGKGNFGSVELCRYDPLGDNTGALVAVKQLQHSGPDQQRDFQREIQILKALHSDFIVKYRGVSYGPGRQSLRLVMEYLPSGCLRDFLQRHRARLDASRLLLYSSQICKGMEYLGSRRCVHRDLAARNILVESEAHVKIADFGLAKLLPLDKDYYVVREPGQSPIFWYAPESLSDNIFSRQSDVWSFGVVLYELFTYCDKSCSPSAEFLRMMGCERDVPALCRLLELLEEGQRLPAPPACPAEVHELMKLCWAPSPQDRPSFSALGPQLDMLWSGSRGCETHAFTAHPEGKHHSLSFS
Description: as §1

TYK2 = TYK2 (Homo sapiens (Human), UniProt P29597); experiment: KINOMEscan enzyme binding assay (DiscoveRx), TYK2; conditions: read-out: Dissociation Constant TYK2
Chain of TYK2 (P29597 whole entry): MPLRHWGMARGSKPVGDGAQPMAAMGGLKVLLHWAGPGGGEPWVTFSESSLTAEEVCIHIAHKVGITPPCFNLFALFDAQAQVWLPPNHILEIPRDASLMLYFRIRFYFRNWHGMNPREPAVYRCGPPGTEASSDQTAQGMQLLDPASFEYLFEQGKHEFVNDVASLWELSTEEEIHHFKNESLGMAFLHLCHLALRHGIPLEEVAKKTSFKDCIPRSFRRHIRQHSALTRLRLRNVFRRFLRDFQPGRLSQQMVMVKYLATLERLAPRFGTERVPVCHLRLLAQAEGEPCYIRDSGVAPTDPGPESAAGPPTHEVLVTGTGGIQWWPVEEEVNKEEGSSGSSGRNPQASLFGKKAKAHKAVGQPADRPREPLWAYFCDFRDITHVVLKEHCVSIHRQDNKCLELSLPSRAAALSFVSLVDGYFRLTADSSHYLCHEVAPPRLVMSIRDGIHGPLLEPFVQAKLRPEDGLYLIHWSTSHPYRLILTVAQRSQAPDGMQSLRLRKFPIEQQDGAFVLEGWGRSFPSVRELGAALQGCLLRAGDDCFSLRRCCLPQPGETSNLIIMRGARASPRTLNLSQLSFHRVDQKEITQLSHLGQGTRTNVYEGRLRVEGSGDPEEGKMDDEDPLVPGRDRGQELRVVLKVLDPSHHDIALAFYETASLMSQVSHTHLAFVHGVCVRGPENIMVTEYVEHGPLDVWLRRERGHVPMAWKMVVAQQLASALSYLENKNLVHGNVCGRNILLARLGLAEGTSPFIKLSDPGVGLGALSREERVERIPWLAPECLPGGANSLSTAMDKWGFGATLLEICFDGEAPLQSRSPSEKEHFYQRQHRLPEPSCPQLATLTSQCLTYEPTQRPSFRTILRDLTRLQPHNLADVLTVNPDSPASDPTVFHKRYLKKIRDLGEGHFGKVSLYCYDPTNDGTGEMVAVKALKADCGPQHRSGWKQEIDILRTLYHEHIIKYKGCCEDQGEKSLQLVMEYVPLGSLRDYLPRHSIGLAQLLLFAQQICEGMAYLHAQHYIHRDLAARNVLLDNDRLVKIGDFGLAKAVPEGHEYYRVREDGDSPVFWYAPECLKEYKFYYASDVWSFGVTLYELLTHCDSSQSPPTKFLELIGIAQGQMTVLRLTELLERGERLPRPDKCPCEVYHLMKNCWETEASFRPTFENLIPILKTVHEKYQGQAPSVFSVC
Description: as §1

[1] = test system: CD3/IL2 stimulated PBMC cells; experiment: IFNγ release from CD3/IL2 stimulated PBMC cells; assay type: cell-based; conditions: Homo sapiens, CD3/IL2 stimulation, 48 h, ELISA
Description: PBMCs from healthy subjects are separated from whole blood using a density gradient (Lymphoprep, Axis-Shield Healthcare). Cells are added to a 96 well plate, and compound at the desired concentration added 2 hours prior to stimulation with a mixture of monoclonal antibody to CD3 (1 μg/ml, eBioscience) and human recombinant IL2 (10 ng/ml, Peprotech). After 48 hours incubation under normal tissue culture conditions, supernatants are collected and IFNγ release determined by Sandwich ELISA (Duo-set, R&D System). The IC50 is determined from the dose response curve.

Jurkat cells = experiment: Cell cytotoxicity assay (propidium iodide, flow cytometry); assay type: cell-based, human; conditions: 24 h
Description: 1×10^5 Jurkat cells (immortalised human T lymphocytes) are added to the appropriate number of wells of a 96 well plate in 100 μL of media (RPMI supplemented with 10% foetal bovine serum). 1 μL of DMSO control (final concentration 1.0% v/v) or test compound (final concentration 20, 5 or 1 μg/mL) is added to the wells and incubated at 37° C., 5% CO2. After 24 hours, the plate is centrifuged at 1200 rpm for 3 minutes and the supernatant discarded. Cells are then resuspended in 150 μL (final concentration 7.5 μg/mL) of propidium iodide (PI) in PBS and incubated at 37° C., 5% CO2 for 15 minutes. After 15 minutes, cells are analysed by flow cytometry (BD accuri) using the FL3 window. The % viability is calculated as the % of cells that are PI negative in the test wells normalised to the DMSO control.

[2] = Solubility in fasted-state simulated colonic fluid (FaSSCoF); assay type: physicochemical; conditions: 25 °C, pH 6.5, fassgf or other biorelevant, thermodynamic from solid, pH 6.5, 25° C.
Description: The solubilities of compounds of the invention in FaSSCoF at pH 6.5 are determined using a modification of a previously-reported procedure (Vertzoni, M., et al. Pharm. Res. 2010, 27, 2187-2196). In place of the bile salt extract employed in the original procedure (which extract is no longer available), the modified procedure uses a mixture of sodium taurochlorate (0.15 g), glycocholic acid (0.15 g), ursodeoxycholic acid (0.05 g), cholic acid (0.05 g), and glycodeoxycholic acid (0.05 g). These five bile acids are ground together with a mortar and pestle to produce a fine white powder that is incorporated into the FaSSCoF, as outlined below.
FaSSCoF medium: Tris(hydroxymethyl)aminomethane (Tris; 0.275 g) and maleic acid (0.44 g) are dissolved in water (35 mL) to give a solution whose pH is adjusted to 6.5 by treatment with 0.5M NaOH (ca. 12 mL). The solution is then made up to 50 mL with water. A portion of this Tris/maleate buffer solution (ca. 25 mL) is added to a 0.5 L round-bottomed flask, before being treated with 0.00565 g of the bile acid mixture described above. Solutions of phosphatidylcholine (0.0111 g) in DCM (0.15 mL) and palmitic acid (0.0013 g) in DCM (0.15 mL) are added, then the organic solvent is evaporated off under reduced pressure at 40° C. until a clear solution, with no perceptible DCM odour, is achieved. The volume of the evaporated solution is adjusted to 50 mL by addition of the remainder of Tris/maleate buffer, then BSA (0.115 g) is added, before being dissolved by gentle agitation.
Solubility Determination: Test compounds are suspended in the pH 6.5 FaSSCoF medium to give a maximum final concentration of 2-10 mg/mL. The suspensions are equilibrated at 25° C. for 24 h, before being filtered through a glass fibre C filter. The filtrates are then diluted as appropriate for injection and quantification by HPLC with reference to a standard. Different volumes of the standard, diluted and undiluted sample solutions are injected and the solubilities are calculated using the peak areas determined by integration of the peak found at the same retention time as the principal peak in the standard injection.

Chain of JAK1 (P23458 whole entry): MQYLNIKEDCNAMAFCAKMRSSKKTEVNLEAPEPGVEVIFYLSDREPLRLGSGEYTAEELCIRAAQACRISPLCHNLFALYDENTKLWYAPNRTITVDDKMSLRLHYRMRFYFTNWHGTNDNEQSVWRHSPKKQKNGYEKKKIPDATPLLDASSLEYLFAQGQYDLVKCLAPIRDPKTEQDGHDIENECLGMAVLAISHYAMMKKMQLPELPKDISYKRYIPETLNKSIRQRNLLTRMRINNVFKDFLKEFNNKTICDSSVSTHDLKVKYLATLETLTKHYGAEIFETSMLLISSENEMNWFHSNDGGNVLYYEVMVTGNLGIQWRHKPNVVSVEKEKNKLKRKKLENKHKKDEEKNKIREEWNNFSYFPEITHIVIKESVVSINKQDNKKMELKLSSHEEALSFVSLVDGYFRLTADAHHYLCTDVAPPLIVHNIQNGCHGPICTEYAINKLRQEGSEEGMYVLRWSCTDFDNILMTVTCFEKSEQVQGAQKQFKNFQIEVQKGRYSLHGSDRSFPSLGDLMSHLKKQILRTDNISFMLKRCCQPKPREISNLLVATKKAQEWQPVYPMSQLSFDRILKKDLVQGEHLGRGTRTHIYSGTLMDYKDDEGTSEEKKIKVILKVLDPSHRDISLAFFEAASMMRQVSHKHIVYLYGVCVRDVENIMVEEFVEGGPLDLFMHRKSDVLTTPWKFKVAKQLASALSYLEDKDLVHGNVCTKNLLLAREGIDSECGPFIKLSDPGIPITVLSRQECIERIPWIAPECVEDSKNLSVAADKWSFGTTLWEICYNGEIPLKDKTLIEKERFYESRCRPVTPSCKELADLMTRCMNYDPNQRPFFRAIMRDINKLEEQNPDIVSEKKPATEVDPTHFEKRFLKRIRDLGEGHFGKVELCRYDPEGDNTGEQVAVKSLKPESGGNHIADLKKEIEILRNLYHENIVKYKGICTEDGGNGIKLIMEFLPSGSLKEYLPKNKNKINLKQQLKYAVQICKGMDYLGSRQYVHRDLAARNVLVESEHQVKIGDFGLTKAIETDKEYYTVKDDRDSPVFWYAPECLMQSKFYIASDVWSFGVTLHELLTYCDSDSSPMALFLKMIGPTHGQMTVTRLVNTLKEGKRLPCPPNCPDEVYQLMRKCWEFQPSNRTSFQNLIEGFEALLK

CCc1cc(O)c(F)cc1-c1ccc2c(-c3nc4c([nH]3)CCN(C(=O)N3CCC(N5CCCCC5)CC3)C4)n[nH]c2c1 [Example 2(a), [1,4′-bipiperidin]-1′-yl(2-(6-(2-ethyl-5-fluoro-4-hydroxyphenyl)-1H-indazol-3-yl)-1,4,6,7-tetrahydro-5H-imidazo[4,5-c]pyridin-5-yl)methanone]
Kd (JAK1): 0.6 nM | Kd (JAK2): 0.034 nM | Kd (JAK3): 0.046 nM | Kd (TYK2): 0.069 nM | IC50 [1]: 48.4 nM | % viability at 1 μg/mL (Jurkat cells): 59% | solubility thermodynamic at 24 h ([2]; Run 1, read-out: pH 6.5 FaSSCoF Solubility, Run 1): 30 µg/mL (≈ 52.5 µM) | solubility thermodynamic at 24 h ([2]; Run 2, read-out: pH 6.5 FaSSCoF Solubility, Run 2): 30 µg/mL (≈ 52.5 µM)
